{"source": "patent US20090068143A1", "about": "“ORALLY EFFECTIVE C[…]” (priority 2005, published 2009)", "key": {"[1]": {"system": "CB2", "experiment": "Real-time RT-PCR gene expression in CNS of MOG induced EAE: CB2", "type": "in vivo, mouse", "conditions": "40 mg/kg p.o., day 31, over naive animals", "protocol": "(§1) Total RNA is prepared using SV total RNA isolation system (Promega). The brains and spinal cords, which were removed on day 31 from five animals treated with vehicle (i.e. untreated) or 40 mg/kg p.o. of compound 18F (i.e. treated) in the MOG-induced EAE study, were homogenized in lysis buffer. The lysates were transferred to an RNA isolation column, treated with DNAse, washed and eluted according to kit instructions. RNA concentrations were determined using GeneQuant II (Pharmacia-Amersham). Complementary DNA (cDNA) was synthesized from total RNA using […] II reverse transcriptase (Life Technologies). […] Quantitative real-time RT-PCR included 1 μl of the cDNA, 300 nM of the appropriate forward and reverse primers (according to the gene monitored) and 7.5 μl of the reaction mix containing buffer, nucleotides, Taq polymerase and SYBER green (SYBER Green master mix, Applied Biosystems), in a total reaction volume of 15 μl. […] During each annealing step, the amount of the amplified product was measured by the fluorescence of the double strand DNA binding dye, SYBER Green. The cycle of threshold (CT), representing the PCR cycle at which an increase in fluorescence above a baseline signal can be first detected, was determined for each product. […] Results were expressed as fold increase of gene expression in treated or untreated animals above the naive animals. […]"}, "[2]": {"system": "RAW 264.7 macrophages", "experiment": "NO secretion of LPS activated RAW 264.7 macrophages (ELISA)", "type": "cell-based", "conditions": "Mus musculus, RAW264.7, 24 hrs after LPS stimulation", "protocol": "RAW 264.7 macrophages, a mouse cell line (ATCC # TIB 71), were grown in Dulbecco's modified Eagle's medium (DMEM) with 4 mM L-glutamine adjusted to contain 1.5 g/L sodium bicarbonate, 4.5 g/L glucose, and 10% heat inactivated fetal bovine serum. Cells were grown in tissue culture flasks and seeded at appropriate density into 6 wells tissue culture plates. Four million Raw cells in half a milliliter were stimulated with 1 μg/ml Lipopolysaccharide E. coli 055:B5 (DIFCO Laboratories). The mouse macrophages were pre-treated for one hour with controls or 10 μM of test compounds, and later on activated with LPS. RNA samples were extracted from the cells 3 hrs after activation and iNOS gene expression levels were analyzed by real-time RT-PCR as previously described. For western blot analysis, compounds were tested at 1, 5 and 10 μM and cells were harvested 24 hrs after LPS stimulation. Supernatant were collected and NO secretion was analyzed using ELISA. Cells were washed 3 times with cold PBS, scrapped and lyzed in 100 μl cell lysis buffer containing 20 mM HEPES, pH 7.6, 150 mM NaCl, 1.5 mM MgCl2, 0.2 mM EDTA, 1% Triton X-100, 10% glycerol, 1 mM DTT, 1 mM PMSF, 10 μg/ml aprotinin. 5 µg/ml leupeptin, 10 mM p-nitrophenyl phosphate, 100 mM β-glycerophosphate, 1 mM sodium fluoride, and 0.1 μM sodium orthovanadate. Cells were lyzed on ice for 10 minutes before further processing. […]"}, "[3]": {"system": "IFN-γ", "experiment": "Real-time RT-PCR gene expression in CNS of MOG induced EAE: IFN-γ", "type": "in vivo, mouse", "conditions": "40 mg/kg p.o., day 31, over naive animals", "protocol": "as §1"}, "[4]": {"system": "ICR male mice", "experiment": "Tetrad Assay (safety)"}, "[5]": {"experiment": "Stability in aqueous solutions", "type": "physicochemical", "conditions": "2 mg/ml in phosphate buffer (pH 7.0), 4° C.", "protocol": "Stability of compounds of the invention in aqueous solutions was compared. Compounds were dissolved in buffer phosphate solutions and their concentration monitored using HPLC and spectrophotometer methodology. While compound 18F at concentration of 2 mg/ml in phosphate buffer (pH 7.0) was stable for at least 3 months at 4° C., compound 18B at concentration of 95 μg/ml in citrate buffer (pH 7.1) readily hydrolyzed in less than 24 hours at 4° C. Therefore, compounds that were designed following the same rational yielded unexpectedly divergent outcome, for instance in connection with stability in aqueous solutions."}}, "note": "Marks after values point to notes of the source that are not given here.", "data": [{"smiles": "CCCCCCC(C)(C)c1cc(O)c([C@H]2CC(=O)C3CC2C3(C)C)c(OC(=O)/C=C/C(=O)O)c1", "note": "(single isomer, unassigned; (-)) [Compound 18F, (−)-4-{4-[1,1-Dimethylheptyl]-2-fumarate-6-hydroxy-phenyl}-6,6-dimethyl-bicyclo[3.1.1]heptan-2-one]", "values": [{"measurement": "Fold gene expression CB2, Spinal Cord, Treated", "setting": "[1]", "result": 2, "unit": "fold"}, {"measurement": "Fold gene expression CB2, Brain, Treated", "setting": "[1]; untreated −13", "result": "1* fold"}, {"measurement": "inhibition at 10 µM", "setting": "[2]", "result": 61, "unit": "%"}, {"measurement": "Fold gene expression IFN-γ, Spinal Cord, Treated", "setting": "[3]", "result": 3, "unit": "fold"}, {"measurement": "Fold gene expression IFN-γ, Brain, Treated", "setting": "[3]; untreated −9", "result": "1* fold"}, {"measurement": "body temperature", "setting": "[4]; 30, 60, 80 and 100 mg/kg p.o.", "result": "transient hypothermia"}, {"measurement": "time to regain normothermia", "setting": "[4]; 30 and 60 mg/kg p.o.", "result": "≤ 24", "unit": "h"}, {"measurement": "body temperature below baseline at the end of follow-up period", "setting": "[4]; 80 and 100 mg/kg p.o.", "result": 2, "unit": "°C"}, {"measurement": "safety at therapeutically effective doses", "setting": "[4]; doses of up to 60 mg/kg p.o.", "result": "found to be safe"}, {"measurement": "catalepsy and spontaneous or forced locomotor activity", "setting": "[4]; p.o., up to maximal dose tested of 100 mg/kg", "result": "no effect"}, {"measurement": "time stable in solution", "setting": "[5]", "result": "at least 3 months"}]}]}
